According to paper PMC9837035 (Nature Communications, 2023):
Several values for one entry are separate records, joined by “and”; a condition that tells them apart may be missing. Equal entries are not always repeated. Where two headings read alike, the source gives them in different places.

Legend:
[1] = Parallel artificial membrane permeability assay (PAMPA); format: in vitro ADME
Description: Parallel artificial membrane permeability measurements were performed in duplicate with a Corning Gentest Pre-coated PAMPA Plate System according to the standard protocol of Corning Incorporated Life Sciences (Tewksbury).

PRMT7 = PRMT7 (Homo sapiens, UniProt Q9NVM4)
PRMT7, sequence (Q9NVM4 whole entry): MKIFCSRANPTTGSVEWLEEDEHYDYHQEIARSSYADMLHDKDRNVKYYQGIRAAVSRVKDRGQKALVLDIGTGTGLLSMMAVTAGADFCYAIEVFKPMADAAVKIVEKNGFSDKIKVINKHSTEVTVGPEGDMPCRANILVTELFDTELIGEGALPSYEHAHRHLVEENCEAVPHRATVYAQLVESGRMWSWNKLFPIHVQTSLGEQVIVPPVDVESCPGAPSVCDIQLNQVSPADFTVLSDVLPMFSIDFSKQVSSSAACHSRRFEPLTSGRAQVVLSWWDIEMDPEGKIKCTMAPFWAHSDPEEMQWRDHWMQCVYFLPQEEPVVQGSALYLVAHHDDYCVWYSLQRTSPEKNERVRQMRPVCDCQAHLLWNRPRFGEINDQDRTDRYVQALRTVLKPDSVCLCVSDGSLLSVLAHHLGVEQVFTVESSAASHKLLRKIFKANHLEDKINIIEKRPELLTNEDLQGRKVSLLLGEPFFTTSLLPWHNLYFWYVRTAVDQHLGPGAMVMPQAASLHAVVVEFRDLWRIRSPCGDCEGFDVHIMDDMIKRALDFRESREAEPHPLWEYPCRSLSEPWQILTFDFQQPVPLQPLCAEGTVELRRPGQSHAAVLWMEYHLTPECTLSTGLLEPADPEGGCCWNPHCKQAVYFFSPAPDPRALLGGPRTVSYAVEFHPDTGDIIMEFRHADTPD

NSD2 (E1099K) = NSD2 (E1099K) (Homo sapiens, UniProt O96028, E1099K)
NSD2 (E1099K), sequence (O96028 whole entry E1099K): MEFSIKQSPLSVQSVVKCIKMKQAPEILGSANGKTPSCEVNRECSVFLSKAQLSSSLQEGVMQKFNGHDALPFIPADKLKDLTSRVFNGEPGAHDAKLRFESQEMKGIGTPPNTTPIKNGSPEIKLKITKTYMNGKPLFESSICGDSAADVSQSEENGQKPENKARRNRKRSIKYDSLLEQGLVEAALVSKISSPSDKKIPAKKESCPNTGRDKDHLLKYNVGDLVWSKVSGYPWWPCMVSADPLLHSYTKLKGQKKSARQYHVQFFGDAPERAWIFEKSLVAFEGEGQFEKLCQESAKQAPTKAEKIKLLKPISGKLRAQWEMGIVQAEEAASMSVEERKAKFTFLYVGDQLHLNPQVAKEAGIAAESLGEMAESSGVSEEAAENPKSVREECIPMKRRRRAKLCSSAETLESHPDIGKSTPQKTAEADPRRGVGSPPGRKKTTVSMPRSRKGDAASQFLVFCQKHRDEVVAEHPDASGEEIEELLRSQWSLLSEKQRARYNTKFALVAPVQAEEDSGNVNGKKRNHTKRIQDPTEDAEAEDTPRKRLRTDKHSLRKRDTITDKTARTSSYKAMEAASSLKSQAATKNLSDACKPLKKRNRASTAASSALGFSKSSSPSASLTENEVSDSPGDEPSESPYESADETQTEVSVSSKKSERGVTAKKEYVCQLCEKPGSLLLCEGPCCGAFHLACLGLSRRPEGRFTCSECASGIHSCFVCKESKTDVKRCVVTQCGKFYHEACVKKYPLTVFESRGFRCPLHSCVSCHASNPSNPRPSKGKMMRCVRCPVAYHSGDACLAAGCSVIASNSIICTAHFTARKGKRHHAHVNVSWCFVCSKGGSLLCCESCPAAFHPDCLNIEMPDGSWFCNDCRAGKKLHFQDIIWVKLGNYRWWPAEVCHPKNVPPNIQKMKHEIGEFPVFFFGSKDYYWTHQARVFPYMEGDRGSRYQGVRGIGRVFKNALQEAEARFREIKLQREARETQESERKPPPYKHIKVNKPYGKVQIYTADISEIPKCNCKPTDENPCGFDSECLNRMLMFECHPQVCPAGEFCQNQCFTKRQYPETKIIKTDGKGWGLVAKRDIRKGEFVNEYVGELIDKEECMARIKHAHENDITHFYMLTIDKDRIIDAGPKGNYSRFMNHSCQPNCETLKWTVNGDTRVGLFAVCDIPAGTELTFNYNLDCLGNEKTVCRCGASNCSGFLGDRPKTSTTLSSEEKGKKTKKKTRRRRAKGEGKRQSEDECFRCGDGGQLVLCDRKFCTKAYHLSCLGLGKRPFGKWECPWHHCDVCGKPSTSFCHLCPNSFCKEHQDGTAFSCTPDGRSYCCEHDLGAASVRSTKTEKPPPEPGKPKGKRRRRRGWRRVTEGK

DOT1L = target: T1, DOT1L (Homo sapiens, UniProt Q8TEK3); experiment: Radioisotope-based methyltransferase assay (selectivity); format: biochemical
T1 construct: purchased Reaction Biology
T1 sequence (Q8TEK3 whole entry): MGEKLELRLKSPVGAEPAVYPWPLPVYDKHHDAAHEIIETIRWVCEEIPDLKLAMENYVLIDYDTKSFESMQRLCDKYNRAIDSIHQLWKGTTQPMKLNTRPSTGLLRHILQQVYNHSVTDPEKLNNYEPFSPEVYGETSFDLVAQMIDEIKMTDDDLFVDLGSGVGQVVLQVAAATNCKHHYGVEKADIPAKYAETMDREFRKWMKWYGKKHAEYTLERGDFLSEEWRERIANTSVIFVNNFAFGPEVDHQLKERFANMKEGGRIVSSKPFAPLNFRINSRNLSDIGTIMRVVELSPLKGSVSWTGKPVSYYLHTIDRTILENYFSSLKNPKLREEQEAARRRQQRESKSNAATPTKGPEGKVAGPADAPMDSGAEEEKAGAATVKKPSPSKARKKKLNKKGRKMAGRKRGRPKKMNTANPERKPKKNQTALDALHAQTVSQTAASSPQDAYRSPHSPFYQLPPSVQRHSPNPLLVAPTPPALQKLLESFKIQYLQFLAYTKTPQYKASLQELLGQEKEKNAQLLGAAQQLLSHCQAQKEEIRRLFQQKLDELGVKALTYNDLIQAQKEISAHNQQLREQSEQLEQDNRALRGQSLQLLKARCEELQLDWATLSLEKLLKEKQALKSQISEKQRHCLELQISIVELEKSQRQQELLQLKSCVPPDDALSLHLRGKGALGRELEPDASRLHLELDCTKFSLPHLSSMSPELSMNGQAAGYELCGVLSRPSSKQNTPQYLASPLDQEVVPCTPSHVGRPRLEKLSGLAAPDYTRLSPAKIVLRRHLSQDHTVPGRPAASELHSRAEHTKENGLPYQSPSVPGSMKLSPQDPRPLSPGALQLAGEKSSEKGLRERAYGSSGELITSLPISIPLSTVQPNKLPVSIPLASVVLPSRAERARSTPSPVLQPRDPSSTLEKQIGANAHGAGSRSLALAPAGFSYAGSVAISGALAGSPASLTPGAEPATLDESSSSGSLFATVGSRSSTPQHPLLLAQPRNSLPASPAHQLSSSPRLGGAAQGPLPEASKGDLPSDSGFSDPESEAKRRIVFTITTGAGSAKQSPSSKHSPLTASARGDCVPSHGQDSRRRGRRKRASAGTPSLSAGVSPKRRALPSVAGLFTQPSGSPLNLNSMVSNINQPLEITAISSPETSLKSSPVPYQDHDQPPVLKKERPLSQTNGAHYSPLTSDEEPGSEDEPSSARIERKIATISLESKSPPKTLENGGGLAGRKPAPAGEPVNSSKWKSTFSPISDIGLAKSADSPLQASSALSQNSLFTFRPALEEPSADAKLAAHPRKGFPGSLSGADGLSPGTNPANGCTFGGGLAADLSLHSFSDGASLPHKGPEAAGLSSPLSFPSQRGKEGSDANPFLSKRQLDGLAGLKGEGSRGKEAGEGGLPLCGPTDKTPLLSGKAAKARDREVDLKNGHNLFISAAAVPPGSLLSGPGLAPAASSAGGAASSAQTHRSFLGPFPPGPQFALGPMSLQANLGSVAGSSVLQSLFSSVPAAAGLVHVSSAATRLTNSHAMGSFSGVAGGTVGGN

PRMT1 [2] = target: T2, PRMT1 (Homo sapiens, UniProt Q99873)
T2 sequence (Q99873 whole entry): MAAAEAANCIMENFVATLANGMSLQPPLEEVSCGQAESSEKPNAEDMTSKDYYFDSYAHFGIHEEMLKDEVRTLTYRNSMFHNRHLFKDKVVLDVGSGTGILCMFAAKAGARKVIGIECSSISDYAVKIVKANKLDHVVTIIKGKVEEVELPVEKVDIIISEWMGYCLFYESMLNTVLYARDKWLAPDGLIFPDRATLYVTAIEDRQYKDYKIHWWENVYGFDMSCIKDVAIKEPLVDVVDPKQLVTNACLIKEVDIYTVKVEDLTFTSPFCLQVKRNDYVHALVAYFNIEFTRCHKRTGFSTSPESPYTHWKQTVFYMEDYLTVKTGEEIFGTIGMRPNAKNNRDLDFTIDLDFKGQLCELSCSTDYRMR

PRMT4 = target: T3, PRMT4 (Homo sapiens, UniProt Q86X55); experiment: Radioisotope-based methyltransferase assay (selectivity); format: biochemical
T3 construct: purchased Reaction Biology
T3 sequence (Q86X55 whole entry): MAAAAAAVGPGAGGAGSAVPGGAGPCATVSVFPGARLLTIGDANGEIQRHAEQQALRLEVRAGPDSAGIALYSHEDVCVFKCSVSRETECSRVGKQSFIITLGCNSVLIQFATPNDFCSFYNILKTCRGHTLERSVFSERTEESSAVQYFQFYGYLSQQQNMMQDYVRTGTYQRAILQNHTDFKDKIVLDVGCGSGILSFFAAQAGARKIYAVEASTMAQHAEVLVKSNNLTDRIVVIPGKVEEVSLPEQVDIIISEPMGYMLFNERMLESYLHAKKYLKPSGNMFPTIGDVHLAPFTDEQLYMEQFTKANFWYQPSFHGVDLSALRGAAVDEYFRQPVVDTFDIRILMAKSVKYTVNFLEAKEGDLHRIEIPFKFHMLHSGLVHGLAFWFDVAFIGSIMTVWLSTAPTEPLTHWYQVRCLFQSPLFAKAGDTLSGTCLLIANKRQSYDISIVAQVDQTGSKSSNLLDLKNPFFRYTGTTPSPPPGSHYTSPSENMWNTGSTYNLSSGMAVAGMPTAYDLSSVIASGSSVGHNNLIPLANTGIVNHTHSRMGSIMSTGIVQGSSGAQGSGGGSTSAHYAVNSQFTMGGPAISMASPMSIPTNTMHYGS

PRMT1 [3] = target: T2, PRMT1; experiment: as above
[4] = tested on: α-, β-, εy-, and βh1-globin mRNA in peripheral blood; experiment: Globin mRNA levels in peripheral blood of treated mice; format: in vivo
Description: Total cellular RNA was prepared using the Tissue Total RNA Mini Kit (FAVORGEN), and cDNA was synthesized using ReverTra Ace Master Mix (TOYOBO). Expression of target genes was analyzed using THUNDERBIRD SYBR qPCR Mix (TOYOBO) on a CFX Connect Real Time System (Bio-Rad). The qPCR data were acquired on CFX Maestro (Bio-Rad). Primers are listed in Supplementary Table 10. GAPDH was used as a reference. Primers were purchased from INTEGRATED DNA TECHNOLOGIES or FASMAC.
C57BL/6 mice (6–8 weeks old, female, six mice/group) were purchased from Tokyo Laboratory Animals Science. The mice were fed a standard laboratory diet and housed in a temperature-controlled room under specific pathogen-free conditions. A combination anesthetic was prepared with 0.3 mg/kg medetomidine, 4.0 mg/kg midazolam, and 5.0 mg/kg butorphanol.
The dosing solution contained 15% DMSO, 17.5% Cremophor EL, 8.75% EtOH, 8.75% HCO-40, and 50% PBS. Blood samples were collected once a week by Retro Orbital Sampling (75 μL Calibrated Micropipette; Drummond Scientific Company) during isoflurane anesthesia. Blood RNA was extracted using NucleoSpin RNA Blood (Takara Bio Inc.). The weight of each mouse was measured every 3 or 4 days.

Caco-2 = Caco-2 permeability assay; format: in vitro ADME; details: replicate values
[5] = Caco-2 permeability assay; format: in vitro ADME; details: human
[6] = Mouse acute toxicity assay, body weight; format: in vivo, mice
Description: All animal studies were approved by the Institutional Committee for Animal Experiments of the Institute of Microbial Chemistry, and were performed in accordance with relevant guidelines and regulations to minimize animal suffering. Four-week-old female ICR mice were purchased from Charles River Breeding Laboratories (Yokohama, Japan) and maintained in a specific pathogen-free barrier facility. […] Samples were dissolved in saline containing 10% DMSO and 1% Tween 80 and injected intravenously into mice.

HUDEP-2 cells = experiment: Cell viability assay (WST-8), HUDEP-2; format: cell-based, human; details: for cell viability in HUDEP-2 cells: control (0 μM) = 100
Description: (§1) A WST-8 (2-(2-methoxy-4-nitrophenyl)-3-(4-nitrophenyl)-5-(2,4-disulfophenyl)-2H-tetrazolium) assay using a Cell Counting Kit-8 (DOJINDO) was performed to measure cell viability using an EnSpire microplate reader (PerkinElmer).

[7] = Cell viability assay (WST-8), HUDEP-2; format: cell-based, human; details: human, HUDEP-2 cells, control (0 μM) = 100
Description: as §1

NSD2 = NSD2 (Homo sapiens, UniProt O96028)
NSD2, sequence (O96028 whole entry): as the sequence (O96028 whole entry E1099K) above, with K1099E counted along it

Question: What does the source list for `Cc1c(C(=O)NC(CCC2CC2)C(=O)Nc2ccc(C#N)cc2)[nH]c2c1C(=O)CC(C)(C)C2` (stereo not shown) [RK-701]?
Answer: cell permeability (PAMPA and Caco-2) [1]: decent cell permeability; Papp ([1]; PAMPA): 3.08 ± 1.47 ×10⁻⁶ cm/s; PAMPA ([1]; replicate values): 2.736e-6 and 5.393e-6 and 2.8861e-6 and 1.3122e-6; IC50 (PRMT7): > 100 µM; IC50 (NSD2 (E1099K)): > 100 µM; IC50 (DOT1L; 1 μM SAM): > 100 µM; IC50 (DOT1L; RK-701 in duplicate): > 100 µM; IC50 (PRMT1 [2]): > 100 µM; IC50 (PRMT4; PRMT4, 1 μM SAM): > 100 µM; IC50 (PRMT4; PRMT4, RK-701 in duplicate): > 100 µM; IC50 (PRMT1 [3]): > 100 µM; mouse embryonic εy-globin [4]: selectively increased; Papp A to B (Caco-2; A to B): 5.724 and 5.177; Papp B to A (Caco-2; B to A): 17.8638 and 19.3603; Papp A→B ([5]; Caco-2, A to B, replicate values, read-out: Papp A to B): 4.8 ×10⁻⁶ cm/s; Papp A→B ([5]; Caco-2, Apical to Basal, read-out: Caco-2 permeability Papp A to B): 5.23 ± 0.47 ×10⁻⁶ cm/s; Papp B→A ([5]; Caco-2, B to A, replicate values, read-out: Papp B to A): 19.5 ×10⁻⁶ cm/s; Papp B→A ([5]; Caco-2, Basal to Apical, read-out: Caco-2 permeability Papp B to A): 18.9 ± 0.92 ×10⁻⁶ cm/s; The body weight of individual mice ([6]; 12.5 mg/kg, Day0): 24.94 g; The body weight of individual mice ([6]; 12.5 mg/kg, Day1): 24.39 g; The body weight of individual mice ([6]; 12.5 mg/kg, Day3): 26.32 g and 24.79 g; The body weight of individual mice ([6]; 12.5 mg/kg, Day5): 26.12 g and 25.27 g and 26.24 g; The body weight of individual mice ([6]; 12.5 mg/kg, Day7): 26.84 g and 25.44 g and 25.63 g; The body weight of individual mice ([6]; 12.5 mg/kg, Day9): 26.98 g and 26.32 g and 26.65 g; The body weight of individual mice ([6]; 12.5 mg/kg, Day11): 27.95 g and 26.07 g and 25.28 g; The body weight of individual mice ([6]; 12.5 mg/kg, Day14): 27.71 g and 26.81 g and 27.50 g; The body weight of individual mice ([6]; 25 mg/kg, Day0): 23.49 g and 24.32 g and 24.36 g; The body weight of individual mice ([6]; 25 mg/kg, Day1): 23.24 g and 25.05 g and 21.93 g; The body weight of individual mice ([6]; 25 mg/kg, Day2): 24.39 g and 26.13 g and 23.16 g; The body weight of individual mice ([6]; 25 mg/kg, Day3): 24.09 g and 26.66 g and 23.50 g; The body weight of individual mice ([6]; 25 mg/kg, Day4): 24.79 g and 27.09 g and 24.50 g; The body weight of individual mice ([6]; 25 mg/kg, Day5): 25.11 g and 26.53 g and 25.43 g; The body weight of individual mice ([6]; 25 mg/kg, Day7): 25.92 g and 26.25 g and 25.57 g; The body weight of individual mice ([6]; 25 mg/kg, Day9): 25.69 g and 26.57 g and 26.31 g; The body weight of individual mice ([6]; 25 mg/kg, Day11): 26.68 g and 27.09 g and 27.51 g; The body weight of individual mice ([6]; 25 mg/kg, Day14): 26.24 g and 26.26 g and 28.11 g; The body weight of individual mice ([6]; 50 mg/kg, Day0): 22.18 g and 23.36 g and 23.10 g; The body weight of individual mice ([6]; 50 mg/kg, Day1): 22.71 g and 22.55 g and 24.93 g; The body weight of individual mice ([6]; 50 mg/kg, Day2): 23.39 g and 22.67 g and 25.00 g; The body weight of individual mice ([6]; 50 mg/kg, Day3): 24.41 g and 22.89 g and 25.00 g; The body weight of individual mice ([6]; 50 mg/kg, Day4): 24.33 g and 23.75 g and 26.48 g; The body weight of individual mice ([6]; 50 mg/kg, Day5): 24.37 g and 24.57 g and 26.83 g; The body weight of individual mice ([6]; 50 mg/kg, Day7): 25.33 g and 23.96 g and 27.23 g; The body weight of individual mice ([6]; 50 mg/kg, Day9): 25.95 g and 24.94 g and 26.92 g; The body weight of individual mice ([6]; 50 mg/kg, Day11): 26.83 g and 25.42 g and 28.13 g; The body weight of individual mice ([6]; 50 mg/kg, Day14): 27.45 g and 26.37 g and 28.85 g; The body weight of individual mice ([6]; 100 mg/kg, Day0): 22.92 g and 23.08 g and 22.86 g; The body weight of individual mice ([6]; 100 mg/kg, Day1): 21.12 g and 23.93 g and 21.40 g; The body weight of individual mice ([6]; 100 mg/kg, Day2): 22.69 g and 24.09 g and 22.95 g; The body weight of individual mice ([6]; 100 mg/kg, Day3): 23.07 g; acute toxicity, body weight ([6]; mouse, in vivo, iv): no significant body weight loss; cell viability in HUDEP-2 cells (HUDEP-2 cells; 0.00457247 μM): 120.908 and 97.8824 and 118.228; cell viability in HUDEP-2 cells (HUDEP-2 cells; 0.0137174 μM): 97.2549 and 110.051; cell viability in HUDEP-2 cells (HUDEP-2 cells; 0.0411523 μM): 112.451 and 91.2941 and 106.985; cell viability in HUDEP-2 cells (HUDEP-2 cells; 0.123457 μM): 96.9412 and 105.622; cell viability in HUDEP-2 cells (HUDEP-2 cells; 0.37037 μM): 97.8824 and 103.918; cell viability in HUDEP-2 cells (HUDEP-2 cells; 1.11111 μM): 96.3137 and 96.4225; cell viability in HUDEP-2 cells (HUDEP-2 cells; 3.33333 μM): 88.1569 and 84.8382; cell viability in HUDEP-2 cells (HUDEP-2 cells; 10 μM): 78.4314 and 79.046; cytotoxic effect on viability (HUDEP-2 cells; HUDEP-2, 3 days): essentially no cytotoxic effect; viability at 0.0137174 μM ([7]; 0.0137174 μM): 99.9%; viability at 0.123457 μM ([7]; 0.123457 μM): 97.4%; viability at 0.37037 μM ([7]; 0.37037 μM): 99.9%; viability at 1.11111 μM ([7]; 1.11111 μM): 105%; viability at 3.33333 μM ([7]; 3.33333 μM): 94.3%; viability at 10 μM ([7]; 10 μM): 77.4%; IC50 (NSD2): > 100 µM
